# Biological target: T1, human CCR10 (Homo sapiens, UniProt P46092)
# T1 construct: expressed in transfected cells; host or cells: KJMGER8 cell (cell line derived from Namalwa cell); expression induced with 10 nmol/L β-estradiol
# T1 sequence (P46092 1-362): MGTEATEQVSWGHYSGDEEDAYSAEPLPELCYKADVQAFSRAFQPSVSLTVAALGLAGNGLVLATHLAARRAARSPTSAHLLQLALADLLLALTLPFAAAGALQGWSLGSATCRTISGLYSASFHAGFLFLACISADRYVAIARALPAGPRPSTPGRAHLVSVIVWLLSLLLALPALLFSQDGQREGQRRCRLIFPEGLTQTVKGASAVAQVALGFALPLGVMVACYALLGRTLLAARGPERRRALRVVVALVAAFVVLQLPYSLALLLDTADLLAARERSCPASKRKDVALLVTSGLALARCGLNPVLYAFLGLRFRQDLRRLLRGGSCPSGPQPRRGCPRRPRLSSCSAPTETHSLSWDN
# Experiment: Calcium assay of human CCR10 (inhibition of CTACK-induced increase in intracellular calcium ion concentration in hCCR10G16 cells)
# Format: cell-based
# Settings: test compound 100 nmol/L; human recombinant CTACK; hCCR10G16 cells (KJMGER8/Namalwa-derived, Gα16 co-expressed); FLIPR or FDSS
# Experimental: A CCR10-inducible expression plasmid was produced according to a known method (“Analytical Biochemistry”, 2006, vol. 400, page 163). A DNA encoding human CCR10 was obtained by PCR. Using human chromosomal DNA (100 ng; manufactured by Clontech Laboratories, Inc.) as a template, a synthetic DNA having the sequences shown by SEQ ID NOs: 1 and 2 as a human CCR10 cDNA specific primer, and Pyrobest DNA Polymerase (manufactured by TAKARA SHUZO CO. LTD.) as an enzyme, a DNA encoding human CCR10 was obtained by PCR. As a buffer solution for PCR, the buffer solution attached to the enzyme was diluted 10-fold with deionized water and used. Using Thermal Cycler DNA Engine (manufactured by MJ Research), PCR was performed by 35 cycles of reactions composed of an incubation at 90° C. for 2 min, at 94° C. for 30 seconds, at an anneal temperature of 58° C. for 30 seconds, and at 72° C. for 1 min.
# The amplified PCR fragment was cleaved with HindIII and NotI, then a human CCR10 DNA fragment was recovered by an agarose gel electrophoresis method. The fragment was incorporated in between the corresponding restriction enzyme sites (HindIII-NotI) of an inducible expression vector, whereby a human CCR10-inducible expression plasmid were prepared.
# Using a primer specific to the sequence of the plasmid (synthetic DNA having the sequences shown by SEQ ID NOs: 3 and 4), the sequence of human CCR10 DNA region was determined. For the determination of the base sequence, DNA sequencer 377 (manufactured by PerkinElmer) and a reaction kit (ABI Prism (registered trade mark) BigDye (registered trade mark) Terminator Cycle Sequencing Ready Reaction kit: manufactured by Applied Biosystems) were used. The sequence of human CCR10 DNA matched with the sequence (NM_016602) registered in GenBank.
# Cells for the detection of the signal from human CCR10 by a calcium assay were prepared. Human CCR10-inducible expressing cells whose host cell is KJMGER8 cell (cell line derived from Namalwa cell) were prepared according to a known method (“Analy Biochem”, 2006, vol. 400, page 163). Human CCR10-inducible expression plasmid produced above and Gα16 expression plasmid were co-transfected into KJMGER8 cell by an electroporation method (“Cytotechnology”, 1990, vol. 3, page 133), whereby a signal from human CCR10 could be detected by a calcium assay (hereinafter to be referred to as hCCR10G16 cell). Gα16 expression plasmid was produced by incorporating human Gα16 DNA into expression vector pAMoh (WO03/087366). Induced expression of human CCR10 was performed by cultivating hCCR10G16 cells in the presence of 10 nmol/L β-estradiol (manufactured by Sigma Ltd.) for 24 hr.
# Cells expressing human CCR10 induced by the above-mentioned method were suspended in RPMI1640 medium and adjusted to cell density of 1.25×10^6 cells/mL. This mixture was dispensed to a 384 well clear bottom plate (manufactured by Corning Incorporated) at 20 μL/well, and these were incubated at 37° C. for several dozen minutes. A loading buffer prepared according to the protocol attached to FLIPR Calcium 3 assay kit (manufactured by Molecular Device) was dispensed to this plate at 20 μL/well, and the plate was incubated at 37° C. for 60 min. A 33 μmol/L DMSO solution of the test compound was diluted 37-fold with RPMI1640 medium and the resulting solution was added at 5 μL/well, and the mixture was incubated at 37° C. for 30 min. 300 nmol/L human recombinant CTACK (manufactured by R and D Systems) diluted with RPMI1640 medium containing 1 w/v % bovine serum albumin was added at 5 μL/well. Change of the intracellular calcium ion concentration for about 5 min after the addition was measured by FLIPR (manufactured by Molecular Device) or FDSS (manufactured by Hamamatsu Photonics K.K.). The difference between the maximum fluorescence intensity and the minimum fluorescence intensity for 5 min was calculated, and taken as the measurement value (maximum fluorescence intensity−minimum fluorescence intensity). […]
row,SMILES,Inhibitory rate (%) for an increase in calcium ion concentration
1,Cc1cc(Cl)ccc1Nc1c(C(=O)N2CCC3(CC2)OCc2ccccc23)cnc2c(S(=O)(=O)NC(=O)C3CC3)cnn12 [a-46],>100%
2,Cc1ccc(F)c(Nc2c(C(=O)N3CCC4(CC3)OCc3ccccc34)cnc3c(S(=O)(=O)NC(=O)C4CC4)cnn23)c1 [a-52],>100%

# Same assay, conditions: test compound 100 nmol/L; human recombinant CTACK; hCCR10G16 cells (KJMGER8/Namalwa-derived, Gα16 co-expressed); FLIPR or FDSS; read-out: Inhibitory rate (%) for an increase in calcium ion concentration
row,SMILES,inhibition at 0.1 µM
1,"CCC(=O)NS(=O)(=O)c1cnn2c(Nc3cc(C)c(F)cc3Cl)c(C(=O)N3CCC(c4ccc(F)cc4)CC3)cnc12 [a-40, N-{7-(2-Chloro-4-fluoro-5-methylphenylamino)-6-[4-(4-fluorophenyl)piperidine-1-carbonyl]pyrazolo[1,5-a]pyrimidin-3-ylsulfonyl}propionamide]",> 100%
2,"Cc1cc(Nc2c(C(=O)N3CCC(c4ccc(F)cc4)CC3)cnc3c(S(=O)(=O)NC(=O)C4CC4)cnn23)c(Cl)cc1F [a-41, N-{7-(2-Chloro-4-fluoro-5-methylphenylamino)-6-[4-(4-fluorophenyl)piperidine-1-carbonyl]pyrazolo[1,5-a]pyrimidin-3-ylsulfonyl}cyclopropanecarboxamide]",> 100%
3,"CCNC(=O)NS(=O)(=O)c1cnn2c(Nc3cc(C)c(F)cc3Cl)c(C(=O)N3CCC(c4ccc(F)cc4)CC3)cnc12 [a-42, 7-(2-Chloro-4-fluoro-5-methylphenylamino)-N-(ethylcarbamoyl)-6-[4-(4-fluorophenyl)piperidine-1-carbonyl]pyrazolo[1,5-a]pyrimidine-3-sulfonamide]",> 100%
4,"CCNC(=O)NS(=O)(=O)c1cnn2c(Nc3ccc(F)cc3C)c(C(=O)N3CCC4(CC3)OCc3ccccc34)cnc12 [a-43, 7-(4-Fluoro-2-methylphenylamino)-N-(ethylcarbamoyl)-6-[3H-spiro(isobenzofuran-1,4′-piperidine)-1′-carbonyl]pyrazolo[1,5-a]pyrimidine-3-sulfonamide]",92%
5,"CCNC(=O)NS(=O)(=O)c1cnn2c(Nc3cc(C)ccc3Cl)c(C(=O)N3CCC4(CC3)OCc3ccccc34)cnc12 [a-44, 7-(2-Chloro-5-methylphenylamino)-N-(ethylcarbamoyl)-6-[3H-spiro(isobenzofuran-1,4′-piperidine)-1′-carbonyl]pyrazolo[1,5-a]pyrimidine-3-sulfonamide]",95.2%
6,"CCNS(=O)(=O)c1cnn2c(Nc3cc(C)ccc3Cl)c(C(=O)N3CCC4(CC3)OCc3ccccc34)cnc12 [a-45, N-Ethyl-7-(2-chloro-5-methylphenylamino)-6-[3H-spiro(isobenzofuran-1,4′-piperidine)-1′-carbonyl]pyrazolo[1,5-a]pyrimidine-3-sulfonamide]",80.3%
7,"CCNC(=O)NS(=O)(=O)c1cnn2c(Nc3ccc(Cl)cc3C)c(C(=O)N3CCC4(CC3)OCc3ccccc34)cnc12 [a-47, 7-(4-Chloro-2-methylphenylamino)-N-(ethylcarbamoyl)-6-[3H-spiro(isobenzofuran-1,4′-piperidine)-1′-carbonyl]pyrazolo[1,5-a]pyrimidine-3-sulfonamide]",> 100%
8,"CCC(=O)NS(=O)(=O)c1cnn2c(Nc3ccc(C)cc3F)c(C(=O)N3CCC4(CC3)OCc3ccccc34)cnc12 [a-48, N-{7-(2-Fluoro-4-methylphenylamino)-6-[3H-spiro(isobenzofuran-1,4′-piperidine)-1′-carbonyl]pyrazolo[1,5-a]pyrimidin-3-ylsulfonyl}propionamide]",> 100%
9,"CCNC(=O)NS(=O)(=O)c1cnn2c(Nc3ccc(C)cc3F)c(C(=O)N3CCC4(CC3)OCc3ccccc34)cnc12 [a-49, 7-(2-Fluoro-4-methylphenylamino)-N-(ethylcarbamoyl)-6-[3H-spiro(isobenzofuran-1,4′-piperidine)-1′-carbonyl]pyrazolo[1,5-a]pyrimidine-3-sulfonamide]",> 100%
10,"CCC(=O)NS(=O)(=O)c1cnn2c(Nc3ccc(F)cc3Cl)c(C(=O)N3CCC4(CC3)OCc3ccccc34)cnc12 [a-50, N-{7-(2-Chloro-4-fluorophenylamino)-6-[3H-spiro(isobenzofuran-1,4′-piperidine)-1′-carbonyl]pyrazolo[1,5-a]pyrimidin-3-ylsulfonyl}propionamide]",> 100%
11,"CCC(=O)NS(=O)(=O)c1cnn2c(Nc3cc(C)ccc3F)c(C(=O)N3CCC4(CC3)OCc3ccccc34)cnc12 [a-51, N-{7-(2-Fluoro-5-methylphenylamino)-6-[3H-spiro(isobenzofuran-1,4′-piperidine)-1′-carbonyl]pyrazolo[1,5-a]pyrimidin-3-ylsulfonyl}propionamide]",> 100%
12,"CCC(=O)NS(=O)(=O)c1cnn2c(Nc3cc(Cl)ccc3Cl)c(C(=O)N3CCC4(CC3)OCc3ccccc34)cnc12 [a-53, N-{7-(2,5-Dichlorophenylamino)-6-[3H-spiro(isobenzofuran-1,4′-piperidine)-1′-carbonyl]pyrazolo[1,5-a]pyrimidin-3-ylsulfonyl}propionamide]",> 100%
13,"O=C(NS(=O)(=O)c1cnn2c(Nc3cc(Cl)ccc3Cl)c(C(=O)N3CCC4(CC3)OCc3ccccc34)cnc12)C1CC1 [a-54, N-{7-(2,5-Dichlorophenylamino)-6-[3H-spiro(isobenzofuran-1,4′-piperidine)-1′-carbonyl]pyrazolo[1,5-a]pyrimidin-3-ylsulfonyl}cyclopropanecarboxamide]",> 100%
14,"CC(=O)NS(=O)(=O)c1cnn2c(Nc3cc(C)ccc3Cl)c(C(=O)N3CCC4(CC3)OCc3ccccc34)cnc12 [a-55, N-{7-(2-Chloro-5-methylphenylamino)-6-[3H-spiro(isobenzofuran-1,4′-piperidine)-1′-carbonyl]pyrazolo[1,5-a]pyrimidin-3-ylsulfonyl}acetamide]",> 100%
15,"CCC(=O)NS(=O)(=O)c1cnn2c(Nc3cc(C)ccc3Cl)c(C(=O)N3CCC4(CC3)OCc3ccccc34)cnc12 [a-56, N-{7-(2-Chloro-5-methylphenylamino)-6-[3H-spiro(isobenzofuran-1,4′-piperidine)-1′-carbonyl]pyrazolo[1,5-a]pyrimidin-3-ylsulfonyl}propionamide]",> 100%
16,"Cc1ccc(Cl)c(Nc2c(C(=O)N3CCC4(CC3)OCc3ccccc34)cnc3c(S(=O)(=O)NC(=O)C4CCC4)cnn23)c1 [a-57, N-{7-(2-Chloro-5-methylphenylamino)-6-[3H-spiro(isobenzofuran-1,4′-piperidine)-1′-carbonyl]pyrazolo[1,5-a]pyrimidin-3-ylsulfonyl}cyclobutanecarboxamide]",> 100%
